The assay deals with HEK293 LMP1 TES2 NF-kB luciferase reporter, 16 h. The experiment in a line: TNFa-induced NF-kB reporter signal decrease – HEK293 LMP1 reporter cells, dry powder, set 2, selectivity assay for EBV LMP1 NF-kB inhibitor project, dose response (AID 624369).

The record followed here is PubChem BioAssay AID624369 (Broad Institute, 2012).

Each structure is given as a SMILES string. Inconclusive results are not listed. Bounds are passed on as bounds.

On to `O=C(C[C@@H]1C[C@@H]2c3cc(NS(=O)(=O)c4ccc(F)cc4)ccc3O[C@@H]2[C@@H](CO)O1)NCc1ccc(Oc2ccccc2)cc1`, for which the AC35 is 16.7 µM.
The figure for `N#C[C@H]1N[C@H](CO)[C@H]1c1ccc(C#Cc2ccccc2F)cc1` is below 0.26 µM.
Turning to `CC(C)(C)[S@@](=O)N1Cc2cc(C(=O)NCc3ccccc3F)nc(-c3cccc(-c4ccncc4)c3)c2[C@H]1CCO`, the AC35 was 9.63 µM.
The figure for `COc1ccc(-c2cccc(-c3nc(C(=O)NCC(F)(F)F)cc4c3[C@H](CCO)N([S@@](=O)C(C)(C)C)C4)c2)cc1` is 28 µM; for `CC(C)(C)[S@@](=O)N1Cc2cc(C(=O)NCCc3ccncc3)nc(-c3cccc(-c4cccnc4)c3)c2[C@H]1CCO` it is 17.7 µM.
The figure for `Cc1cc(C(=O)Nc2ccc3c(c2)C(=O)N(C)[C@H]2CC[C@@H](CC(=O)NCc4ccc(-c5ccccc5)cc4)O[C@H]2CO3)no1` is 13.5 µM; for `O=C(C[C@H]1C[C@@H]2c3cc(NC(=O)c4ccc5c(c4)OCO5)ccc3O[C@@H]2[C@@H](CO)O1)NCc1ccc(Oc2ccccc2)cc1` it is 24.6 µM; for `O=C(C[C@H]1C[C@H]2c3cc(NC(=O)c4ccc5c(c4)OCO5)ccc3O[C@H]2[C@H](CO)O1)NCc1ccc(Oc2ccccc2)cc1` it is 30 µM.
The figure for `CN1C(=O)c2cc(NC(=O)Cc3cccs3)ccc2OC[C@@H]2O[C@H](CC(=O)NCc3ccc(-c4ccccc4)cc3)CC[C@H]21` is 33.6 µM.
